The test system of this experiment is HT-29 human colon cancer cells. In words: In vitro biological activity assay: inhibition of TNFα/SmacM/Z_VAD FMK-induced programmed necrosis, CellTiter-Glo viability. The experiment is classed as cell-based. The following applies: HT-29 cells, necrosis induced with TNF-α 100 ng/mL, SmacM 100 nM, Z_VAD-FMK 10 μM, overnight, cell viability by chemiluminescence. How it is done:
In order to verify the inhibitory effect of the compounds of the present disclosure on programmed necrosis at the cellular level, a type of cells closely related to the RIP1 pathway, namely HT-29 human colon cancer cells, were selected. The used activation mode is a combination of tumor necrosis factor (TNFα), cysteine aspartate activator mimic (SmacM) and pan-caspase inhibitor Z_VAD FMK, and the cell viability was calculated by detecting chemiluminescence values, thus obtaining the biological activity of the compound inhibiting the programmed necrosis of cells.
Cell line: HT-29 (ATCC® HTB-38™)
• 2.1. The Growth Status of HT-29 Cells was Regularly Checked to Ensure their Normal Growth. • 2.2. McCOY's 5A culture medium containing 10% FBS was preheated in a 37° C. water bath for 30 minutes. When the culture medium was ready for use, the cell passage and inoculation was performed in a Class II safety cabinet with aseptic technique. • 2.3. In a T75 culture flask, when the growth density of cells reached the abundance of approximately 80%, the culture medium was aspirated and cells were washed twice with pre-warmed PBS. • 2.4. 2-3 mL of trypsin (Gibco, catalog number 25200-056) was added and the T75 culture flask was transferred to a 37° C. incubator. • 2.5. After 3-5 minutes, the side of the culture flask was tapped and examined under a microscope for detachment of the cells to the flask. If necessary, the cells were placed back into the incubator to wait for another 5-10 minutes until 85% of the cells were detached from each other. • 2.6. 6-9 mL of complete cell culture medium was quickly added to terminate the trypsin reaction, and then the cells were transferred to a sterile 15 mL centrifuge tube. The cells were pelleted by centrifugation at 300 g for 5-7 minutes in a centrifuge, and then the supernatant was decanted. • 2.7. The cells were resuspended in 10 mL of fresh cell culture medium and the cells were counted by using a hemocytometer. • 2.8. 3,000 cells contained in 100 μL were inoculated into each well of a sterile 96-well cell culture plate (Corning 3903) and cultured overnight at 37° C. under 5% CO2.
• 3.1. All batches of compounds were dissolved in dimethyl sulfoxide (DMSO) to prepare a 20 mM stock. • 3.2. 3 μL of 20 mM stock of each compound was added to 27 μL of DMSO and mixed thoroughly, and then diluted at a dilution ratio of […] (20 μL compound+40 μL DMSO) until the 10-12 points ended. After the compounds were diluted, they were set aside for use. • 3.3. The cell culture plate was taken out from the incubator, washed once with PBS, and replaced with a fresh culture medium free of serum. A mixture of TNF-α (100 ng/mL), SMAC mimic (SmacM, 100 nM) and Z_VAD-FMK (10 μM) was added to induce the programmed necrosis in HT-29 cells. • 3.4. The compound dilution plate was prepared, 0.5 μL of the diluted compound was added to the corresponding 96-well plate, and mixed gently. Two duplicate wells were prepared for each compound. • 3.5. The treated 96-well plate to which the compounds had been added was placed back into the 37° C. incubator containing 5% CO2 and incubated overnight.
The luminescence cell viability detection kit was used to calculate the activity of the compound by measuring the ATP content in viable cells. • 4.1. The CellTiter-Glo® buffer and dry powdered substrate were equilibrated to room temperature before use. • 4.2. The CellTiter-Glo® substrate was resuspended with Cell Titer-Glo® buffer, then homogeneously mixed by gently vortexing. • 4.3. The cell culture plate was taken out and equilibrated at room temperature for 10 minutes (usually not suitable if more than 30 minutes). • 4.4. 20 μL of enzyme/substrate mixture was added into the 96-well assay plate with a multi-channel pipettor. • 4.5. The 96-well assay plate was placed on a shaker and the content was mixed for 2-3 minutes to promote the cell lysis. • 4.6. […]
On the technique in general: In ATP-based viability assays light output follows the ATP content of the culture.
Turning to `Clc1ncc(C#Cc2cncc(-n3cc4c(n3)C(c3ccccc3)CC4)c2)cn1` (stereo not drawn) [Compound 41, 2-(5-((2-chloropyrimidin-5-yl)ethynyl)pyridin-3-yl)-6-phenyl-2,4,5,6-tetrahydrocyclopenta[c]pyrazole], the 50% effective concentration (EC50) (usually the concentration needed to bring the measured effect to its halfway point) is 100 to 1000 nM.

For `Nc1ccc(C#Cc2cncc(-n3cc4c(n3)C(c3ccccc3)CC4)c2)nn1` (stereo not drawn) [Compound 17, 6-((5-(6-phenyl-5,6-dihydrocyclopenta[c]pyrazol-2 (4H)-yl)pyridin-3-yl)ethynyl)pyridazine-3-amine], the EC50 was no more than 100 nM.

As to `Nc1ncc(C#Cc2cncc(-n3cc4c(n3)[C@@H](c3cccc(F)c3)CC4)c2)cn1` [Compound 47, (R)-5-((5-(6-(3-fluorophenyl)-5,6-dihydrocyclopenta[c]pyrazol-2 (4H)-yl)pyridine-3-yl)ethynyl)pyrimidin-2-amine], the EC50 was no more than 100 nM.

As to `Cn1cc(C#Cc2cccc(-n3cc4c(n3)C(c3ccccc3)CC4)c2)cn1` (stereo not drawn) [Compound 25, 2-(3-((1-methyl-iH-pyrazole-4-yl)ethynyl)phenyl)-6-phenyl-2,4,5,6-tetrahydrocyclopenta[c]pyrazole], the EC50 was no more than 100 nM.

Regarding `Nc1ncc(C#Cc2cncc(-n3cc4c(n3)[C@H](c3cccc(F)c3)CC4)c2)cn1` [Compound 46], the EC50 is no more than 100 nM.

In the case of `Cn1cc(C#Cc2cncc(-n3cc4c(n3)[C@H](c3ccccc3)CC4)c2)cnc1=O` [Compound 21, (S)-1-methyl-5-((5-(6-phenyl-5,6-dihydrocyclopenta[c]pyrazol-2 (4H)-yl)pyridin-3-yl)ethynyl)pyrimidine-2 (1H)-one], the EC50 was in the range of 100 to 1000 nM.

With `Cn1c(-n2nc3c(n2)C(c2cncc(F)c2)CC3)cc(C#Cc2cnc(N)nc2)cc1=O` (stereo not drawn) [Compound 59, 4-((2-aminopyrimidin-5-yl)ethynyl)-6-(4-(5-fluoropyridin-3-yl)-5,6-dihydrocyclopenta[d][1,2,3]triazol-2 (4H)-yl)-1-methylpyridin-2 (1H)-one], the EC50 was no more than 100 nM.

For `Nc1ncc(C#Cc2c[nH]c(=O)c(-n3nc4c(n3)C(c3ccccc3)CC4)c2)cn1` (stereo not drawn) [Compound 60, 5-((2-aminopyrimidin-5-yl)ethynyl)-3-(4-phenyl-5,6-dihydrocyclopenta[d][1,2,3]triazol-2 (4H)-yl)pyridine-2 (1H)-one], the EC50 was greater than 1000 nM.

As for `Nc1ncc(C#Cc2cncc(-n3cc4c(n3)C(c3cncc(F)c3)CC4)c2)cn1` (stereo not drawn) [Compound 19, 5-((5-(6-(5-fluoropyridin-3-yl)-5,6-dihydrocyclopenta[c]pyrazol-2 (4H)-yl)pyridin-3-yl)ethynyl)pyrimidin-2-amine], the concentration for a half-maximal effect (EC50) is no more than 100 nM.

Take `Cc1cnn(C)c1C#Cc1cccc(-n2cc3c(n2)C(c2ccccc2)CC3)c1` (stereo not drawn) [Compound 22, 2-(3-((1,4-dimethyl-1H-pyrazole-5-yl)ethynyl)phenyl)-6-phenyl-2,4,5,6-tetrahydrocyclopenta[c]pyrazole]: the EC50 is no more than 100 nM.

For the compound `Nc1ncc(C#Cc2cncc(-n3cc4c(n3)[C@@H](c3ccccc3)CC4)c2)cn1` [Compound 13, (R)-5-((5-(6-phenyl-5,6-dihydrocyclopenta[c]pyrazol-2 (4H)-yl)pyridin-3-yl)ethynyl)pyrimidin-2-amine], the EC50 is no more than 100 nM.

`C(#Cc1cnc2cccnn12)c1cc(-n2cc3c(n2)C(c2ccccc2)CC3)ncn1` (stereo not drawn) [Compound 8, 3-((6-(6-phenyl-5,6-dihydrocyclopenta[c]pyrazol-2 (4H)-yl)pyrimidine-4-yl)ethynyl)imidazo[1,2-b]pyridazine]: the EC50 fell in the range of 100 to 1000 nM.

With `N#Cc1cc(F)cc(C2CCc3cn(-c4cncc(C#Cc5cnc(N)nc5)c4)nc32)c1` (stereo not drawn) [Compound 20, 3-(2-(5-((2-aminopyrimidin-5-yl)ethynyl)pyridin-3-yl)-2,4,5,6-tetrahydrocyclopenta[c]pyrazol-6-yl)-5-fluorobenzonitrile], the EC50 was no more than 100 nM.

With `Nc1ncc(C#Cc2cncc(-n3cc4c(n3)[C@H](c3cc(F)cc(F)c3)CC4)c2)cn1` [Compound 50, (S)-5-((5-(6-(3,5-difluorophenyl)-5,6-dihydrocyclopenta[c]pyrazol-2 (4H)-yl)pyridin-3-yl)ethynyl)pyrimidin-2-amine], the EC50 is no more than 100 nM.

As for `Cc1ncc(C#Cc2cnc(N)nc2)cc1-n1nc2c(n1)C(C1CCCCC1)CC2` (stereo not drawn) [Compound 64, 5-((5-(4-cyclohexyl-5,6-dihydrocyclopenta[d][1,2,3]triazol-2 (4H)-yl)-6-methylpyridin-3-yl)ethynyl)pyrimidin-2-amine], the EC50 is no more than 100 nM.

For `Cn1nccc1C#Cc1cccc(-n2cc3c(n2)C(c2ccccc2)CC3)c1` (stereo not drawn) [Compound 23, 2-(3-((1-methyl-1H-pyrazole-5-yl)ethynyl)phenyl)-6-phenyl-2,4,5,6-tetrahydrocyclopenta[c]pyrazole], the half-maximal effective concentration (EC50) was no more than 100 nM.

Take `C(#Cc1cnc2cccnn12)c1cccc(-n2nc3c(n2)C(c2ccccc2)CC3)c1` (stereo not drawn) [Compound 53, 3-((3-(4-phenyl-5,6-dihydrocyclopenta[d][1,2,3]triazol-2 (4H)-yl)phenyl)ethynyl)imidazo[1,2-b]pyridazine]: the EC50 was no more than 100 nM.

For the compound `Nc1ncc(C#Cc2cncc(-n3cc4c(n3)C(c3ccccc3)CC4)n2)cn1` (stereo not drawn) [Compound 29], the EC50 was no more than 100 nM.

On to `C(#Cc1cnc2cccnn12)c1cncc(-n2cc3c(n2)C(c2ccccc2)CC3)n1` (stereo not drawn) [Compound 26, 3-((6-(6-phenyl-5,6-dihydrocyclopenta[c]pyrazol-2 (4H)-yl)pyrazin-2-yl)ethynyl)imidazo[1,2-b]pyridazine], for which the EC50 was no more than 100 nM.

Take `Nc1ncc(C#Cc2cncc(-n3cc4c(n3)[C@@H](c3cc(F)cc(F)c3)CC4)c2)cn1` [Compound 49, (R)-5-((5-(6-(3,5-difluorophenyl)-5,6-dihydrocyclopenta[c]pyrazol-2 (4H)-yl)pyridin-3-yl)ethynyl)pyrimidin-2-amine]: the 50% effective concentration (EC50) was no more than 100 nM.

With `Cc1c(C#Cc2cnc(N)nc2)cncc1-n1cc2c(n1)C(c1ccccc1)CC2` (stereo not drawn) [Compound 43, 5-((4-methyl-5-(6-phenyl-5,6-dihydrocyclopenta[c]pyrazol-2 (4H)-yl)pyridine-3-yl)ethynyl)pyrimidin-2-amine], the EC50 is no more than 100 nM.

Consider `Oc1cnc(C#Cc2cncc(-n3cc4c(n3)C(c3ccccc3)CC4)c2)cn1` (stereo not drawn) [Compound 12, 5-((5-(6-phenyl-5,6-dihydrocyclopenta[c]pyrazol-2 (4H)-yl)pyridin-3-yl)ethynyl)pyrazine-2-ol], for which the EC50 is greater than 1000 nM.

For the compound `Nc1ncc(C#Cc2cncc(-n3cc4c(n3)C(c3cc(F)cc(F)c3)CC4)c2)cn1` (stereo not drawn) [Compound 48], the EC50 was no more than 100 nM.

Regarding `Cc1ccc(C#Cc2cccc(-n3cc4c(n3)C(c3ccccc3)CC4)c2)cn1` (stereo not drawn) [Compound 35, 2-(3-((6-methylpyridin-3-yl)ethynyl)phenyl)-6-phenyl-2,4,5,6-tetrahydrocyclopenta[c]pyrazole], the EC50 was no more than 100 nM.

For `Nc1cnc(C#Cc2cncc(-n3cc4c(n3)C(c3ccccc3)CC4)c2)cn1` (stereo not drawn) [Compound 18, 5-((5-(6-phenyl-5,6-dihydrocyclopenta[c]pyrazol-2 (4H)-yl)pyridin-3-yl)ethynyl)pyrazine-2-amine], the half-maximal effective concentration (EC50) was no more than 100 nM.

In the case of `C(#Cc1cnc2cccnn12)c1ccnc(-n2cc3c(n2)C(c2ccccc2)CC3)c1` (stereo not drawn) [Compound 27], the EC50 was no more than 100 nM.

Regarding `Cc1cncc(C#Cc2cccc(-n3cc4c(n3)C(c3ccccc3)CC4)c2)c1` (stereo not drawn) [Compound 34, 2-(3-((5-methylpyridin-3-yl)ethynyl)phenyl)-6-phenyl-2,4,5,6-tetrahydrocyclopenta[c]pyrazole], the EC50 was no more than 100 nM.
